Source: patent US7056948B2, “Use of odor reducing and cross-adapting agents to reduce animal waste malodors” (Monell Chemical Senses Center, priority 2000, dated 2006)

What was measured:
[1] = Initial olfactory evaluation by judges of swine slurry treated with a single odor-reducing or cross-adapting agent; details: initial olfactory evaluations by several judges; 1-10% by weight
Source text: We attempted amelioration of odor from swine slurry. Swine slurry is a highly malodorous aqueous mixture of pig feces, urine, body secretions and spent feed. Each concentration was mixed with 1 gm of untreated swine slurry. Untreated swine slurry served as a control.

[2] = cited from earlier work

Substance | suppression of the stronger malodor notes in swine slurry [1] | reduction in malodor in patients with urinary and fecal incontinence ([2]; 100-200 mg doses, after the first week of treatment) | dosages safely used ([2]; Chernomorsky et al.) | control of malodors in colostomy patients ([2]; oral, 100-200 mg daily) | side effects in colostomy patients ([2]; oral, 100-200 mg daily)
chlorophyllin copper complex [CCC] | appeared to suppress the stronger malodor notes | marked reduction in malodor | up to 800 mg/day | sufficient to control malodors | without undesirable side effects
bismuth subgallate [BiG] | appeared to suppress the stronger malodor notes | – | – | – | –
